Reference: US20140121216A1, “INDOLEAMINE DERIVATIVES FOR THE TREATMENT OF CENTRAL NERVOUS SYSTEM DISEASES” (Adamed Sp. z o.o., priority 2011, published 2014)

Legend:
[1] = molecular target: T1, D3 (h), human recombinant (CHO cells) (Homo sapiens, UniProt P35462); assay: Cellular functional assay D3 (h) agonism; format: cell-based; conditions: compound 1×10^−6 M; control 0.3 μM dopamine
T1 construct: expressed in transfected cells; host or cells: CHO cells
Description: (§1) The results are expressed as a percent of control specific agonist response ((measured specific response/control specific agonist response)×100) obtained in the presence of tested compound.
(§2) The EC50 values (concentration producing a half-maximal specific response) and IC50 values (concentration causing a half-maximal inhibition of the control specific agonist response) were determined by non-linear regression analysis of the concentration-response curves generated with mean replicate values using Hill equation curve fitting (Y=D+[(A−D)/(1+(C/C50)nH)], where Y=specific response, D=minimum specific response, A=maximum specific response, C=compound concentration, and C50=EC50 or IC50, and nH=slope factor).
(§3) For the antagonists, the apparent dissociation constants (Kb) were calculated using the modified Cheng Prusoff equation (Kb=IC50/(1+(A/EC50A)), where A=concentration of reference agonist in the assay, and EC50A=EC50 value of the reference agonist).

[2] = molecular target: T1, D3 (h), human recombinant (CHO cells); assay: Cellular functional assay D3 (h) antagonism; format: cell-based; conditions: compound 1×10^−6 M; stimulus dopamine 10 nM
Description: as §1, §2, §3

[3] = molecular target: T2, α2C adrenergic receptors, human recombinant (CHO cells) (Homo sapiens, UniProt P18825); assay: Binding assay, α2C adrenergic receptor ([3H]RX 821002); conditions: for α2C [%] affinity test result: compound 1×10^−6 M; for Ki: read-out: Inhibition constant Ki α2C
T2 construct: expressed in transfected cells; host or cells: CHO cells
T2 sequence (P18825 1-462): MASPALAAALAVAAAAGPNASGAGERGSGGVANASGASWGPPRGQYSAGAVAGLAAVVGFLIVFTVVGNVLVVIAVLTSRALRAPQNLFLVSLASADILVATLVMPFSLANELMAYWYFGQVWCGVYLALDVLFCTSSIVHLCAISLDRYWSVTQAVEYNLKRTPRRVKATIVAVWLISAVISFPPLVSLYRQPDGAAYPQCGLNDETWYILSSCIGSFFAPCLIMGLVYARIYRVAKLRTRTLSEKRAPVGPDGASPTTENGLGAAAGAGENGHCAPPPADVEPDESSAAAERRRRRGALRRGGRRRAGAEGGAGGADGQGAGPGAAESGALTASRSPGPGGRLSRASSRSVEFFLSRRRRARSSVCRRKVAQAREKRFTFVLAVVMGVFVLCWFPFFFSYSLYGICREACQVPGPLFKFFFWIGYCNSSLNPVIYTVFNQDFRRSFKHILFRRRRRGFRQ
Description: (§4) Moreover, ability of the compounds of the invention to block potassium channel hERG was tested.
(§5) The specific ligand binding to the receptors is defined as the difference between the total binding and the non-specific binding determined in the presence of an excess of unlabelled ligand.
(§6) The inhibition constants (Ki) were calculated using the Cheng Prusoff equation (Ki=IC50/(1+(L/KD)), where L=concentration of radioligand in the assay, and KD=affinity of the radioligand for the receptor). A Scatchard plot is used to determine the Kd. The IC50 values (concentration causing a half-maximal inhibition of control specific binding) and Hill coefficients (nH) were determined by non-linear regression analysis of the competition curves generated with mean replicate values using Hill equation curve fitting (Y=D+[(A−D)/(1+(C/C50)^nH)], where Y=specific binding, D=minimum specific binding, A=maximum specific binding, C=compound concentration, C50=IC50, and nH=slope factor). This analysis was performed using a software developed at Cerep (Hill software) and validated by comparison with data generated by the commercial software SigmaPlot® 4.0 for Windows® (©1997 by SPSS Inc.).
Experimental conditions for tests are given in Table 7, and results of tests for representative compounds are given in Tables 8a and 8b (α1 receptors) and in Tables 9a and 9b (α2C receptors).

[4] = molecular target: T3, 5-HT6 (h), human recombinant (CHO cells) (Homo sapiens, UniProt P50406); assay: Cellular functional assay 5-HT6 (h) agonism; format: cell-based; conditions: compound 1×10^−6 M, control 10 μM serotonin, read-out: 5-HT6-ag [%]
T3 construct: expressed in transfected cells; host or cells: CHO cells
T3 sequence (P50406 whole entry): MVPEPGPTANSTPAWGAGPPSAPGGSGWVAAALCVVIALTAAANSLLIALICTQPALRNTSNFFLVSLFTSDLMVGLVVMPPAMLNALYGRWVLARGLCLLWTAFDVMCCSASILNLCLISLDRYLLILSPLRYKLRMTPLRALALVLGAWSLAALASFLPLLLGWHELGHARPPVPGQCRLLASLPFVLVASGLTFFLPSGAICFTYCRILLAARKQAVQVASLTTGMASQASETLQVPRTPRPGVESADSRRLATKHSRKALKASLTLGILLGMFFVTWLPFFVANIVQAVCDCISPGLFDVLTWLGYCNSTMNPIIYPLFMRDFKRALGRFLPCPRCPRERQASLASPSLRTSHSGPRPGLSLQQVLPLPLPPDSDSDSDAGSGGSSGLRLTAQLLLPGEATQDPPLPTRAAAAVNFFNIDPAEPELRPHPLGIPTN
Description: as §1, §2, §3

[5] = molecular target: T4, 5-HT1A (h), human recombinant (CHO cells) (Homo sapiens, UniProt P08908); assay: Cellular functional assay 5-HT1A (h) agonism; format: cell-based; conditions: compound 1×10^−6 M; control 100 nM 8-OHDPAT
T4 construct: expressed in transfected cells; host or cells: CHO cells
T4 sequence (P08908 1-422): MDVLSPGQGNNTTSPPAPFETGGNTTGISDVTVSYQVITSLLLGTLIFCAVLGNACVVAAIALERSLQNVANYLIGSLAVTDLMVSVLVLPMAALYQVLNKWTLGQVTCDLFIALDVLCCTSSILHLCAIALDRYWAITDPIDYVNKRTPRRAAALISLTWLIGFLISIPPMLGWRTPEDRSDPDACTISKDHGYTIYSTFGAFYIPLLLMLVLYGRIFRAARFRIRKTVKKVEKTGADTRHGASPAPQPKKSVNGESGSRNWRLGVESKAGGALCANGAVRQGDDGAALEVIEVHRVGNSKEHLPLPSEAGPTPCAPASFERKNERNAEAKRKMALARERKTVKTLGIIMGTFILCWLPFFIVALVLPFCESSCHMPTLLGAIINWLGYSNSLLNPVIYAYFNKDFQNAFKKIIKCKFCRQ
Description: as §1, §2, §3

[6] = molecular target: T5, 5-HT2C receptor, human recombinant (HEK-293 cells) (Homo sapiens, UniProt P28335); assay: Binding assay, 5-HT2C receptor ([3H]mesulergine); conditions: for 5-HT2C [%] binding assay result: compound 1×10^−6 M
T5 construct: expressed in transfected cells; host or cells: HEK-293 cells
T5 sequence (P28335 33-458): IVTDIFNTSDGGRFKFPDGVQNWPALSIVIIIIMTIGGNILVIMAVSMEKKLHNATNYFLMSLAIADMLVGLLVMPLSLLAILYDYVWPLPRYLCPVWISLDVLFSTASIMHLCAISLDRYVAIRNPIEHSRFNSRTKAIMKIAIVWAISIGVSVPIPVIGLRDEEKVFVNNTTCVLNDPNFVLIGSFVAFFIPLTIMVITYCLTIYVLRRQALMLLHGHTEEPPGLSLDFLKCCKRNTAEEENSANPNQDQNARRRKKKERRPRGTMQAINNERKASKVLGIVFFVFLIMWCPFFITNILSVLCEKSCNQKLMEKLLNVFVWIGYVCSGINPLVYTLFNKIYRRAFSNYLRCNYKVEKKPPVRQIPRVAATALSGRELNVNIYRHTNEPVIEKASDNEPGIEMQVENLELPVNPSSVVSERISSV
Description: as §4, §5
as §6, with “factor).” for “factor). This analysis was performed using a software developed at Cerep (Hill software) and validated by comparison with data generated by the commercial software SigmaPlot® 4.0 for Windows® (©1997 by SPSS Inc.).”

T1 sequence (P35462 whole entry): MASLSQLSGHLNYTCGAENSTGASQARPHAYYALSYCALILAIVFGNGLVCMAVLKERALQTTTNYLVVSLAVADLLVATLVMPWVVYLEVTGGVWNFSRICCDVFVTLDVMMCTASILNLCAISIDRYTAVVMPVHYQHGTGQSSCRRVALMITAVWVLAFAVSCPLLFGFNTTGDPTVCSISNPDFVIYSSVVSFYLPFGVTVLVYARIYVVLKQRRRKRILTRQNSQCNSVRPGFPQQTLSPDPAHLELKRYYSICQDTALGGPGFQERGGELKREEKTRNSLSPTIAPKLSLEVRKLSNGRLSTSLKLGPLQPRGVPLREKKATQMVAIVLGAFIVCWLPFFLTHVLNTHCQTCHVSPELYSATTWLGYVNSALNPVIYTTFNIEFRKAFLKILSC

## O=C1CCc2ccc(OCCCN3CCN(c4cccc5c4ccn5Cc4ccccc4)CC3)cc2N1 [Compound 4, 7-[3-[4-(1-Benzylindol-4-yl)piperazin-1-yl]propoxy]-3,4-dihydro-1H-quinolin-2-one]
[1]
  D3-ag [%]: 22%
[2]
  D3-antag [%]: 29%
[3]
  α2C [%] affinity test result: 93%
[4]
  activation at 1 µM: 0%
[5]
  5-HT1A-ag [%]: 63%
[6]
  5-HT2C [%] binding assay result: 73%

## O=C1CCc2ccc(OCCCN3CCN(c4cccc5c4ccn5S(=O)(=O)c4ccccc4)CC3)cc2N1 [Compound 23, 7-[3-[4-[1-(Benzensulphonyl)indol-4-yl]piperazin-1-yl]propoxy]-3,4-dihydro-1H-quinolin-2-one]
[1]
  D3-ag [%]: 65%
[2]
  D3-antag [%]: −19%
[3]
  α2C [%] affinity test result: 32%
  Ki: 440 nM
[4]
  activation at 1 µM: 2%
[5]
  5-HT1A-ag [%]: 69%
[6]
  5-HT2C [%] binding assay result: 0%

## O=C1CCc2ccc(OCCCCN3CCN(c4cccc5c4ccn5S(=O)(=O)c4ccccc4)CC3)cc2N1 [Compound 24, 7-(4-(4-(1-(Phenylsulphonyl)-1H-indol-4-yl)piperazin-1-yl)butoxy)-3,4-dihydroquinolin-2(1H)-one]
[1]
  D3-ag [%]: 13%
[2]
  D3-antag [%]: 63.2%
[3]
  α2C [%] affinity test result: 78%
  Ki: 150 nM
[4]
  activation at 1 µM: 0%
[5]
  5-HT1A-ag [%]: 69.7%
[6]
  5-HT2C [%] binding assay result: 48%
[6]; read-out: Inhibition constant Ki 5-HT2C
  Ki: 610 nM

## NC(=O)c1ccccc1OCCCN1CCN(c2cccc3c2ccn3S(=O)(=O)c2ccccc2)CC1 [Compound 72, 2-[3-[4-[1-(Benzenesulfonyl)indol-4-yl]piperazin-1-yl]propoxy]-benzamide]
[1]
  D3-ag [%]: 34%
[2]
  D3-antag [%]: 74%
[3]
  α2C [%] affinity test result: 74%
[4]
  activation at 1 µM: -2%
[5]
  5-HT1A-ag [%]: 16%
[6]
  5-HT2C [%] binding assay result: 35%

## O=C1CCc2ccc(OCCCCN3CCN(c4cccc5c4ccn5Cc4ccccc4)CC3)cc2N1 [Compound 5, 7-(4-(4-(1-Benzyl-1H-indol-4-yl)piperazin-1-yl)butoxy)-3,4-dihydroquinolin-2(1H)-one]
[1]
  D3-ag [%]: 22%
[2]
  D3-antag [%]: 43%
[3]
  α2C [%] affinity test result: 93%
[4]
  activation at 1 µM: -1%
[5]
  5-HT1A-ag [%]: 66%
[6]
  5-HT2C [%] binding assay result: 86%

## O=C1CCc2ccc(OCCCCN3CCN(c4cccc5c4ccn5Cc4cccc(F)c4)CC3)cc2N1 [Compound 63, 7-[4-[4-[1-[(3-Fluorophenyl)methyl]indol-4-yl]piperazin-1-yl]butoxy]-3,4-dihydro-1H-quinolin-2-one]
[1]
  D3-ag [%]: 20%
[2]
  D3-antag [%]: 72%
[3]
  α2C [%] affinity test result: 100%
[4]
  activation at 1 µM: -1%
[5]
  5-HT1A-ag [%]: 26%
[6]
  5-HT2C [%] binding assay result: 89%

## O=C1CCc2ccc(OCCCCN3CCN(c4cccc5c4ccn5Cc4cccc(Cl)c4)CC3)cc2N1 [Compound 67, 7-[4-[4-[1-[(3-Chlorophenyl)methyl]indol-4-yl]piperazin-1-yl]butoxy]-3,4-dihydro-1H-quinolin-2-one]
[1]
  D3-ag [%]: 11%
[2]
  D3-antag [%]: 74%
[3]
  α2C [%] affinity test result: 97%
[4]
  activation at 1 µM: 0%
[5]
  5-HT1A-ag [%]: 23%
[6]
  5-HT2C [%] binding assay result: 76%
